The source of these data is the supplement of paper PMC9103864.

Experiment [1] concerns BMSC (primary human bone marrow mesenchymal stromal cells). In words: absolute EC50 for viability; higher = less sensitive.
Experiment [2] shares this test system. Nature of the experiment: drug sensitivity score (DSS); higher = more sensitive.

Consider `CS(=O)(=O)c1ccc(-c2cnc(N)c(C(=O)Nc3ccccc3)n2)cc1` [VE-821], for which, in experiment [1], the “absolute EC50 for viability” value is > 10 µM. The compound further displayed a drug sensitivity score in experiment [2] of 0.
Take `O=C(O)CC1CC(c2ccccc2)=NO1` (centres undefined) [VGX-1027]: in experiment [1], the “absolute EC50 for viability” value is > 10 µM. Besides, in experiment [2], the drug sensitivity score is -0.1.
As for `C=CC(=O)N1CC/C(=C\c2ccc(F)c([N+](=O)[O-])c2)C(=O)/C(=C/c2ccc(F)c([N+](=O)[O-])c2)C1` [VLX1570], in experiment [1], the “absolute EC50 for viability” value was determined as 1.4 µM. The compound also returned a drug sensitivity score in experiment [2] of 9.6.
Consider `CNC(=O)c1ccccc1Nc1cc(Nc2ccc(N3CCOCC3)cc2OC)ncc1C(F)(F)F` [VS-4718], for which the “absolute EC50 for viability” value in experiment [1] was > 10 µM. The compound also showed a drug sensitivity score in experiment [2] of 5.6.
Take `CCCC(CCC)C(=O)O` [Valproic acid]: in experiment [1], the “absolute EC50 for viability” value is > 1000 µM. This compound also had a drug sensitivity score in experiment [2] of 0.
For `CCCCC(=O)OCC(=O)[C@]1(O)Cc2c(O)c3c(c(O)c2[C@@H](O[C@H]2C[C@H](NC(=O)C(F)(F)F)[C@H](O)[C@H](C)O2)C1)C(=O)c1c(OC)cccc1C3=O` [Valrubicin], in that order: 0.489 µM and 10.8.
Take `COc1cc2/c(=N/c3ccc(Br)cc3F)nc[nH]c2cc1OCC1CCN(C)CC1` [Vandetanib]: in experiment [1], the “absolute EC50 for viability” value was > 1 µM. For the same compound, the drug sensitivity score in experiment [2] is 2.5.
As for `CCc1c(C(=O)C(N)=O)c2c(OCC(=O)O)cccc2n1Cc1ccccc1` [Varespladib], the “absolute EC50 for viability” value in experiment [1] is > 10 µM. In addition, the drug sensitivity score in experiment [2] amounted to 0.
On to `C[C@@H]1COC(Nc2ccc3ncnc(Nc4ccc(OCc5nccs5)c(Cl)c4)c3c2)=N1` [Varlitinib], for which the “absolute EC50 for viability” value in experiment [1] was > 10 µM. The drug sensitivity score in experiment [2] worked out at 0.4.
On to `Clc1ccc(Nc2nnc(Cc3ccncc3)c3ccccc23)cc1` [Vatalanib], for which the “absolute EC50 for viability” value in experiment [1] was > 10 µM. In experiment [2], this compound came in with a drug sensitivity score of 0.
Regarding `C[C@]1(c2nc3c(C(N)=O)cccc3[nH]2)CCCN1` [Veliparib], the “absolute EC50 for viability” value in experiment [1] is > 10 µM. In experiment [2], this compound showed a drug sensitivity score of 0.
In the case of `CCCS(=O)(=O)Nc1ccc(F)c(C(=O)c2c[nH]c3ncc(-c4ccc(Cl)cc4)cc23)c1F` [Vemurafenib], the “absolute EC50 for viability” value in experiment [1] was > 10 µM. The compound also registered a drug sensitivity score in experiment [2] of 0.
`CC1(C)CCC(CN2CCN(c3ccc(C(=O)NS(=O)(=O)c4ccc(NCC5CCOCC5)c([N+](=O)[O-])c4)c(Oc4cnc5[nH]ccc5c4)c3)CC2)=C(c2ccc(Cl)cc2)C1` [Venetoclax]: in experiment [1], the “absolute EC50 for viability” value is > 1 µM. Besides, the drug sensitivity score in experiment [2] was determined as 0.
As to `O=C(/C=C\n1cnc(-c2cc(C(F)(F)F)cc(C(F)(F)F)c2)n1)NNc1ccccn1` [Verdinexor], in experiment [1], the “absolute EC50 for viability” value is > 1 µM. For the same compound, the drug sensitivity score in experiment [2] was 1.6.
For `CCCCOc1nc(N)c2c(n1)N(Cc1cccc(CN3CCCC3)c1)CC(=O)N2` [Vesatolimod], the “absolute EC50 for viability” value in experiment [1] was > 10 µM. In experiment [2], the drug sensitivity score was found to be 0.
As for `COc1cccc(-c2ccc(NC(=O)C3=C(C(=O)O)CCC3)c(F)c2)c1` [Vidofludimus], the “absolute EC50 for viability” value in experiment [1] is > 10 µM. The compound also came in with a drug sensitivity score in experiment [2] of 0.
For `CC[C@]1(O)C[C@@H]2CN(CCc3c([nH]c4ccccc34)[C@@](C(=O)OC)(c3cc4c(cc3OC)N(C)[C@H]3[C@@](O)(C(=O)OC)[C@H](OC(C)=O)[C@]5(CC)C=CCN6CC[C@]43[C@@H]65)C2)C1` [Vinblastine], the “absolute EC50 for viability” value in experiment [1] is > 1 µM. This compound displayed a drug sensitivity score in experiment [2] of 1.9.
`CC[C@]1(O)C[C@H]2CN(CCc3c([nH]c4ccccc34)[C@@](C(=O)OC)(c3cc4c(cc3OC)N(C=O)[C@H]3[C@@](O)(C(=O)OC)[C@H](OC(C)=O)[C@]5(CC)C=CCN6CC[C@]43[C@@H]65)C2)C1` [Vincristine]: in experiment [1], the “absolute EC50 for viability” value was > 1 µM. Also, in experiment [2], the drug sensitivity score was 3.4.
As to `CC[C@]12C=CCN3CC[C@@]4(c5cc([C@@]6(C(=O)OC)C[C@@H]7C[C@@H](C(C)(F)F)CN(Cc8c6[nH]c6ccccc86)C7)c(OC)cc5N(C)[C@H]4[C@@](O)(C(=O)OC)[C@@H]1OC(C)=O)[C@@H]32` [Vinflunine], the “absolute EC50 for viability” value in experiment [1] is > 1 µM. Further, the drug sensitivity score in experiment [2] was found to be 2.8.
Regarding `CCC1=C[C@@H]2CN(C1)Cc1c([nH]c3ccccc13)[C@@](C(=O)OC)(c1cc3c(cc1OC)N(C)[C@H]1[C@@](O)(C(=O)OC)[C@H](OC(C)=O)[C@]4(CC)C=CCN5CC[C@]31[C@@H]54)C2` [Vinorelbine], the “absolute EC50 for viability” value in experiment [1] is 1.12 µM. In experiment [2], the drug sensitivity score amounted to 16.5.
As for `CS(=O)(=O)c1ccc(C(=O)Nc2ccc(Cl)c(-c3ccccn3)c2)c(Cl)c1` [Vismodegib], in experiment [1], the “absolute EC50 for viability” value was > 10 µM. This compound also came in with a drug sensitivity score in experiment [2] of 0.
As to `CNC(=O)c1cccc(-c2ccc3c(N4CCOC[C@@H]4C)nc(N4CCOC[C@@H]4C)nc3n2)c1` [Vistusertib], in experiment [1], the “absolute EC50 for viability” value worked out at 0.488 µM. In experiment [2], this compound registered a drug sensitivity score of 13.7.
In the same order, the values of `CC[C@@H]1C(=O)N(C)c2cnc(Nc3ccc(C(=O)N[C@H]4CC[C@H](N5CCN(CC6CC6)CC5)CC4)cc3OC)nc2N1C(C)C` [Volasertib] are > 1 µM and 1.5.
In the same order, the values of `O=C(CCCCCCC(=O)Nc1ccccc1)NO` [Vorinostat] are 2.94 µM and 5.6.
In the same order, the values of `Oc1nc(-c2ccc(C(F)(F)F)cc2)nc2c1CSCC2` [XAV-939] are > 10 µM and 1.5.
`FC(F)c1nc2ccccc2n1-c1nc(N2CCOCC2)nc(N2CCOCC2)n1` [ZSTK474]: the “absolute EC50 for viability” value in experiment [1] was > 10 µM. The drug sensitivity score in experiment [2] came out at 7.2.
For `Cc1sc2c(c1C)C(c1ccc(Cl)cc1)=N[C@@H](CC(=O)NCCCCNC(=O)COc1cccc3c1C(=O)N(C1CCC(=O)NC1=O)C3=O)c1nnc(C)n1-2` (some centres undefined) [dBET1], in experiment [1], the “absolute EC50 for viability” value amounted to 2.05 µM. This compound also registered a drug sensitivity score in experiment [2] of 8.2.
